Data taken from patent publication US12540120B2, “Herbicidal compounds” (SYNGENTA CROP PROTECTION AG, priority 2019, dated 2026).

Experiments:
Type in all cases: in vivo
[1] = test system: Amaranthus retoflexus (AMARE); test: B2 Post-Emergence Efficacy—Test 2; settings: post-emergence application, 250 g/ha, evaluated after 13 days (Test 2)
Description: (§1) B2 Post-Emergence Efficacy—Test 2 Seeds of a variety of test species are sown in standard soil in pots:—Solanum nigrum (SOLNI), Amaranthus retoflexus (AMARE), Setaria faberi (SETFA), Echinochloa crus-galli (ECHCG), Ipomoea hederacea (IPOHE), Lolium perenne (LOLPE). After 8 days cultivation (post-emergence) under controlled conditions in a glasshouse (at 24/16° C., day/night; 14 hours light; 65% humidity), the plants are sprayed with an aqueous spray solution derived from the formulation of the technical active ingredient in acetone/water (50:50) solution containing 0.5% Tween 20 (polyoxyethylene sorbitan monolaurate, CAS RN 9005-64-5). Compounds are applied at 250 g/ha. The test plants are then grown in a glasshouse under controlled conditions in a glasshouse (at 24/16° C., day/night; 14 hours light; 65% humidity) and watered twice daily. After 13 days, the test is evaluated for the percentage damage caused to the plant. The biological activities are assessed on a five point scale (5=80-100%; 4=60-79%; 3=40-59%; 2=20-39%; 1=0-19%). A blank value in the table is indicative that the compound was not tested on that species.

[2] = test system: Echinochloa crus-galli (ECHCG); test: B2 Post-Emergence Efficacy—Test 2; settings: post-emergence application, 250 g/ha, evaluated after 13 days (Test 2)
Description: as §1

[3] = test system: Ipomoea hederacea (IPOHE); test: B2 Post-Emergence Efficacy—Test 2; settings: post-emergence application, 250 g/ha, evaluated after 13 days (Test 2)
Description: as §1

Lolium perenne (LOLPE) [4] = test: B2 Post-Emergence Efficacy—Test 2; settings: post-emergence application, 250 g/ha, evaluated after 13 days (Test 2)
Description: as §1

Setaria faberi (SETFA) [5] = test: B2 Post-Emergence Efficacy—Test 2; settings: post-emergence application, 250 g/ha, evaluated after 13 days (Test 2)
Description: as §1

Solanum nigrum (SOLNI) [6] = test: B2 Post-Emergence Efficacy—Test 2; settings: post-emergence application, 250 g/ha, evaluated after 13 days (Test 2)
Description: as §1

[7] = test system: Amaranthus retoflexus (AMARE); test: B5 Pre-Emergence Efficacy—Test 2; settings: 250 g/ha, evaluated after 13 days
Description: (§2) B5 Pre-Emergence Efficacy—Test 2 Seeds of a variety of test species were sown in standard soil in pots: Solanum nigrum (SOLNI), Amaranthus retoflexus (AMARE), Setaria faberi (SETFA), Echinochloa crus-galli (ECHCG), Ipomoea hederacea (IPOHE), Lolium perenne (LOLPE). After cultivation for one day (pre-emergence) under controlled conditions in a glasshouse (at 24/16° C., day/night; 14 hours light; 65% humidity), the plants were sprayed with an aqueous spray solution derived from the formulation of the technical active ingredient in acetone/water (50:50) solution containing 0.5% Tween 20 (polyoxyethelyene sorbitan monolaurate, CAS RN 9005-64-5). Compounds are applied at 250 g/ha. The test plants were then grown in a glasshouse under controlled conditions (at 24/16° C., day/night; 14 hours light; 65% humidity) and watered twice daily. After 13 days, the test is evaluated for the percentage damage caused to the plant. The biological activities are assessed on a five point scale (5=80-100%; 4=60-79%; 3=40-59%; 2=20-39%; 1=0-19%). A blank value in the table is indicative that the compound was not tested on that species.

Solanum nigrum (SOLNI) [8] = test: B5 Pre-Emergence Efficacy—Test 2; settings: 250 g/ha, evaluated after 13 days
Description: as §2

[9] = test system: Echinochloa crus-galli (ECHCG); test: B5 Pre-Emergence Efficacy—Test 2; set-up: key: 5-point scale: 5=80-100%, 4=60-79%, 3=40-59%, 2=20-39%, 1=0-19% damage; settings: 250 g/ha, evaluated after 13 days
Description: as §2

[10] = test system: Ipomoea hederacea (IPOHE); test: B5 Pre-Emergence Efficacy—Test 2; set-up: key: 5-point scale: 5=80-100%, 4=60-79%, 3=40-59%, 2=20-39%, 1=0-19% damage; settings: 250 g/ha, evaluated after 13 days
Description: as §2

Lolium perenne (LOLPE) [11] = test: B5 Pre-Emergence Efficacy—Test 2; set-up: key: 5-point scale: 5=80-100%, 4=60-79%, 3=40-59%, 2=20-39%, 1=0-19% damage; settings: 250 g/ha, evaluated after 13 days
Description: as §2

Setaria faberi (SETFA) [12] = test: B5 Pre-Emergence Efficacy—Test 2; set-up: key: 5-point scale: 5=80-100%, 4=60-79%, 3=40-59%, 2=20-39%, 1=0-19% damage; settings: 250 g/ha, evaluated after 13 days
Description: as §2

Compound	percentage damage caused to the plant, five point scale, AMARE [1]	percentage damage caused to the plant, five point scale, ECHCG [2]	percentage damage caused to the plant, five point scale, IPOHE [3]	percentage damage caused to the plant, five point scale, LOLPE (Lolium perenne (LOLPE) [4])	percentage damage caused to the plant, five point scale, SETFA (Setaria faberi (SETFA) [5])	percentage damage caused to the plant, five point scale, SOLNI (Solanum nigrum (SOLNI) [6])	Control of weed species after pre-emergence application, AMARE (percentage damage, five point scale) [7]	Control of weed species after pre-emergence application, SOLNI (percentage damage, five point scale) (Solanum nigrum (SOLNI) [8])	Control of weed species after pre-emergence application, ECHCG (percentage damage, five point scale) [9]	Control of weed species after pre-emergence application, IPOHE (percentage damage, five point scale) [10]	Control of weed species after pre-emergence application, LOLPE (percentage damage, five point scale) (Lolium perenne (LOLPE) [11])	Control of weed species after pre-emergence application, SETFA (percentage damage, five point scale) (Setaria faberi (SETFA) [12])
COC(=O)c1ccc(CCc2c(Cl)ccc(F)c2-c2c(O)c(C)nn(C)c2=O)cc1 [Compound A-1.041]	5 (5=80-100%)	1 (1=0-19%)	2 (2=20-39%)	1 (1=0-19%)	4 (4=60-79%)	5 (5=80-100%)	4 (4=60-79%)	0	0	0	0	0
Cc1nn(C)c(=O)c(-c2c(F)ccc(Cl)c2CCc2ccc(NC(=O)OC(C)(C)C)c(F)c2)c1O [Compound A-1.042]	5 (5=80-100%)	5 (5=80-100%)	3 (3=40-59%)	5 (5=80-100%)	5 (5=80-100%)	5 (5=80-100%)	5 (5=80-100%)	5 (5=80-100%)	2 (2=20-39%)	2 (2=20-39%)	1 (1=0-19%)	5 (5=80-100%)
CC(=O)Nc1cc(CCc2c(Cl)ccc(F)c2-c2c(O)c(C)nn(C)c2=O)ccn1 [Compound A-1.044]	5 (5=80-100%)	3 (3=40-59%)	0	4 (4=60-79%)	5 (5=80-100%)	5 (5=80-100%)	5 (5=80-100%)	5 (5=80-100%)	3 (3=40-59%)	1 (1=0-19%)	2 (2=20-39%)	5 (5=80-100%)
Cc1nc(-c2ccc(CCc3c(Cl)ccc(F)c3-c3c(O)c(C)nn(C)c3=O)cc2)cs1 [Compound A-1.383]	5 (5=80-100%)	5 (5=80-100%)	5 (5=80-100%)	5 (5=80-100%)	5 (5=80-100%)	5 (5=80-100%)	5 (5=80-100%)	5 (5=80-100%)	4 (4=60-79%)	5 (5=80-100%)	3 (3=40-59%)	4 (4=60-79%)
Cc1nn(C)c(=O)c(-c2c(F)ccc(Cl)c2CCc2ccc(-c3cccs3)cc2)c1O [Compound A-1.384]	5 (5=80-100%)	3 (3=40-59%)	5 (5=80-100%)	4 (4=60-79%)	5 (5=80-100%)	5 (5=80-100%)	2 (2=20-39%)	1 (1=0-19%)	0	2 (2=20-39%)	0	0
Cc1nn(C)c(=O)c(-c2c(F)ccc(Cl)c2CCc2ccc(-n3cncn3)cc2)c1O [Compound A-1.385, 4-[3-chloro-6-fluoro-2-[2-[4-(1,2,4-triazol-1-yl)phenyl]ethyl]phenyl]-5-hydroxy-2,6-dimethyl-pyridazin-3-one]	5 (5=80-100%)	5 (5=80-100%)	5 (5=80-100%)	5 (5=80-100%)	5 (5=80-100%)	5 (5=80-100%)	5 (5=80-100%)	5 (5=80-100%)	5 (5=80-100%)	5 (5=80-100%)	5 (5=80-100%)	5 (5=80-100%)
Cc1nn(C)c(=O)c(-c2c(F)ccc(Cl)c2/C=C/c2cccc(C#N)c2)c1O [Compound A-2.030]	3 (3=40-59%)	0	4 (4=60-79%)	1 (1=0-19%)	0	4 (4=60-79%)	0	0	0	0	0	0
Cc1nn(C)c(=O)c(-c2c(F)ccc(Cl)c2/C=C/c2ccc(O)cc2)c1O [Compound A-2.037]	1 (1=0-19%)	2 (2=20-39%)	2 (2=20-39%)	1 (1=0-19%)	1 (1=0-19%)	2 (2=20-39%)	0	0	0	1 (1=0-19%)	1 (1=0-19%)	1 (1=0-19%)
